The values below come from a melting point compilation (Tetko et al.; mined from patent text by program, amines drawn as free bases though some values may be those of a salt).

Structures are written as SMILES.

As usually defined, the melting point is the temperature of the solid-liquid transition. Take `Nc1ccc(-c2nc3ccccc3o2)cc1I`: the melting point fell in the range of 188 to 191 °C.

For the compound `CCOC(=O)C(O)=CC=C(SC)C(=O)c1ccc(O)c(O)c1`, the melting point was 156 °C.

In turn, `CC(C)c1ccccc1NC(=N)Nc1cccc2ccccc12` yielded a melting point of 175 to 177 °C.

`CCOC(=O)COc1ccc(NC(C)=O)cc1NC(=O)c1ccc(OCCCCc2ccccc2)cc1` yielded a melting point of 130 to 132 °C.

`CCOCc1nc2c(N)nc3cc(-n4ccccc4=O)ccc3c2n1CCCOC(C)C` displayed a melting point of 161 to 164 °C.

`N#CC1=C(C#N)Sc2nc3cc(Cl)ccc3nc2S1` registered a melting point of 278 to 280 °C.

Regarding `c1ccc2c(c1)CCc1c-2noc1N1CCCNCC1`, the melting point was in the range of 79 to 81 °C.

On to `CC(C)Cc1c2c(nn1Cc1ccccc1)c(N)nc1ccccc12`, for which the melting point lay within 194 to 196 °C.

Take `CC(O)c1ccc(NS(C)(=O)=O)c(Sc2ccc(F)cc2F)c1` (stereo unspecified): the melting point fell in the range of 118 to 120 °C.

For `OC(COc1cccnc1)c1cccc(OCc2ccc3ccccc3n2)c1` (stereo unspecified), the melting point was in the range of 103 to 104 °C.

Compound `COc1cccc2c(-c3ccnc(N[C@H]4CC[C@H](O)CC4)n3)n[nH]c12` had a melting point of 243 to 245 °C.

The compound `O=C1c2ccccc2C2(c3ccccc3)N1CCS2(=O)=O` (stereo unspecified) came in with a melting point of 190 to 193 °C.

Regarding `CCOC(=O)C1CCN(S(C)(=O)=O)CC1`, the melting point is 91 to 92 °C.

On to `Nc1nc2c(c(=O)[nH]1)C(CCc1ccc(C(=O)O)cc1)CN2` (stereo unspecified), for which the melting point was > 290 °C.

For `COc1cc([N+](=O)[O-])ccc1C(=O)N1CCCCC1`, the melting point was 104 °C.

In turn, `Nc1c(F)c(N2CCC(CC3(N)CC3)C2)c(F)c2c1c(=O)c(C(=O)O)cn2C1CC1F` (stereo unspecified) registered a melting point of 185 to 193 °C.

Consider `CC(C)c1cc(CCC(=O)O)n(Cc2ccc(C(F)(F)F)cc2Cl)n1`, for which the melting point is 117 to 119 °C.

The compound `COc1ccc(C(=O)OC2CCN(Cc3ccccc3)CC2)cc1` yielded a melting point of 55 to 56 °C.

As for `O=C(Oc1ccccc1)c1ccc(-c2ccccc2)cc1`, the melting point is 146 to 149 °C.

Compound `CCCCCCOc1c(C=O)ccc2c1C=CC(C=O)(OCCCCCC)C2` (stereo unspecified) yielded a melting point of 50 to 52 °C.

`CC(C)(C)CC(=O)NCc1ccc2c(c1)C(=O)N(C1CCC(=O)NC1=O)C2=O` (stereo unspecified) returned a melting point of 232 to 234 °C.

As to `CCCCOc1ccc(C(=O)Nc2ccc3cc(CN4CCN(C)CC4)cnc3c2C)cc1`, the melting point amounted to 145 °C.

The compound `CC1CN2CC(=O)N(C)c3ccc(Cl)cc3C2(c2ccccc2)O1` (stereo unspecified) had a melting point of 142 to 143 °C.

`COC1(C)COC(C)(OC)CO1` (stereo unspecified) had a melting point of 126 to 128 °C.

`CCC(=O)N1Cc2cn[nH]c2-c2ccccc21` registered a melting point of 130 to 131 °C.

Compound `O=c1cc2c(nn1-c1ccc(Cl)cc1)-c1cccc(Cl)c1S(=O)CC2` (stereo unspecified) returned a melting point of 217 to 219 °C.

`COC(=O)c1nn(C)nc1C(=O)OC` had a melting point of 86 to 87 °C.

As to `COc1cc2cn(CC3CCCCO3)nc2cc1OC` (stereo unspecified), the melting point lay in the range of 90 to 96 °C.

For `CCOCc1nc2c(N)nc3cc(-c4cccc(C(=O)N5CCOCC5)c4)ccc3c2n1CC(C)(C)O`, the melting point lay in the range of 152 to 154 °C.

`COc1cc(OC)cc(N2CCN(C(=O)N(C)c3nc(C)c(C)nc3OC)CC2)c1` displayed a melting point of 80 to 82 °C.

As to `CCOC(=O)c1c(CN(CC)CC)nc2sc3cnccc3c2c1-c1ccc(O)c(OC)c1`, the melting point lay within 179 to 181 °C.

Take `Clc1ccc(Cn2cc(C=NNc3nc(-c4ccc(Cl)cc4Cl)cs3)c3ccccc32)c(Cl)c1`: the melting point stood at 185 °C.

Consider `Cc1ccc(-c2nc3c([nH]c(=O)c4ccccc43)s2)cc1`, for which the melting point was in the range of 314 to 316 °C.

As to `CC(C)c1ccc(Cl)nn1`, the melting point was in the range of 32 to 33 °C.

Turning to `Nc1cc2c(cc1C(=O)c1ccccc1)OCO2`, the melting point was 160 to 161 °C.

`CCc1cc2c(cc1O)C(C)(C)CCC2(C)C` came in with a melting point of 88 to 89 °C.

Compound `O=C(O)c1ccc2cccc(Br)c2c1` registered a melting point of 265 to 266 °C.

With `CC(C)C(S)C(=O)NC1(C(=O)NC(Cc2ccc(-c3ccccc3)nc2)C(=O)O)CCCC1` (stereo unspecified), the melting point lay within 208 to 211 °C.

As to `COc1cc(N(C(=O)[C@@H](N)Cc2cnc[nH]2)S(=O)(=O)c2ccc3c(ccn3C)c2)cc(OC)c1OC`, the melting point fell in the range of 175 to 177 °C.

`Nc1ncn(C2OC(CO)C(O)C2O)c2nc(=O)sc1-2` (stereo unspecified) displayed a melting point of 132 to 134 °C.

`COC(=O)c1nc(-c2ccco2)cc(N)c1Cl`: the melting point is 145 to 150 °C.

Regarding `COC(=O)c1nc2cc(Cl)ccc2c(O)c1C(=O)OC`, the melting point lay in the range of 232 to 233 °C.

Turning to `CC(=O)OCN1C(=O)CON(C(C)=O)C1c1ccccc1` (stereo unspecified), the melting point lay within 75 to 76 °C.

Regarding `O=C(NCCc1cccc2ccc(OC3CCCCC3)cc12)C1CCC1`, the melting point lay in the range of 116 to 118 °C.

Take `COC(=O)c1ccc(C(OC(C)=O)OC(C)=O)cc1`: the melting point lay in the range of 64 to 67 °C.

Turning to `CCOC(=O)N(c1cccc(C(F)(F)F)c1)c1ccccc1[N+](=O)[O-]`, the melting point was 45 to 48 °C.

`CC(=O)Oc1c(C2CCN(CCCCNC(=O)c3ccc(-c4ccc(C#N)cc4)cc3)CC2)ccc2ccccc12` displayed a melting point of 115 to 120 °C.

For `CSC(Oc1cc2cc(Br)cnc2cc1C)C(=O)NC(C)(C)C` (stereo unspecified), the melting point fell in the range of 132 to 134 °C.

The compound `Nc1cc(=O)n(Cc2ccccc2Cl)[nH]1` yielded a melting point of 153 °C.

As for `Cc1ccc(C(=O)Nc2cccc(C(F)(F)F)c2)cc1-c1ccc2cnncc2c1`, the melting point fell in the range of 270 to 272 °C.

`NCCCC(N)(C(=O)O)C(F)F` (stereo unspecified) came in with a melting point of 183 °C.

`O=C1OC(=O)C2=C1CCOc1ccccc12` registered a melting point of 142 to 143 °C.

In the case of `Fc1ccc(C(OCCCN2CCN(C(c3ccccc3)c3ccccc3)CC2)c2ccc(F)cc2)cc1`, the melting point lay in the range of 78 to 79 °C.

As to `COc1ccc(NC(=O)Cn2c3c(c4cc(Cl)c(Cl)cc42)CCN(C(=O)OC(C)(C)C)CC3)cc1`, the melting point was in the range of 151 to 152 °C.

`CCN(CCOc1ccc(Cl)c2[nH]cc(Cl)c12)c1ccsc1` showed a melting point of 123 to 125 °C.

On to `CCn1ncc2c(Cl)c3cc(Br)ccc3nc21`, for which the melting point was 117 to 118 °C.

As for `CCOC(=O)c1cnn(-c2c(Cl)cc(C(F)(F)F)cc2Cl)c1C`, the melting point lay within 61 to 62 °C.

`Clc1ccc(-c2csc(-c3cnccc3N3CCOCC3)n2)cc1`: the melting point stood at 169 °C.

In the case of `OCCN1CCN(C2=Nc3ccccc3Sc3ccccc32)CC1`, the melting point is 57 to 60 °C.

Compound `Cc1ccc(S(=O)(=O)OCC2CCn3c(nc4ccccc43)S2)cc1` (stereo unspecified) returned a melting point of 145 to 147 °C.

Consider `Nc1ccc2c(c1)C(=O)NC(C(Cl)(Cl)Cl)O2` (stereo unspecified), for which the melting point was 172 to 174 °C.

With `COc1ccc(C2=NN(CCCCCCNC(=O)c3ccccc3C(N)=O)C(=O)[C@H]3CC=CC[C@@H]23)cc1OC` (relative stereo), the melting point was 104 to 105 °C.

In the case of `CNc1nnc(-c2ccc3occ(-c4ccc(OC(F)(F)F)cc4)c3c2)o1`, the melting point lay within 184 to 185 °C.

For `C=C(c1ccc(N(C)C)cc1)c1ccc(N2CCCC2)cc1C`, the melting point was in the range of 90 to 93 °C.

`COc1ccc(CC(=O)c2ccc(OC)c(OC)c2)cc1OC` registered a melting point of 105 to 107 °C.

In turn, `CC1SC(c2cccnc2)NC1=O` (stereo unspecified) registered a melting point of 110 °C.

On to `COc1ccc(C(=O)c2csc(S(N)(=O)=O)c2)cc1`, for which the melting point lay within 173 to 175 °C.

For the compound `COCn1ccnc1C(O)(c1ccccc1)c1ccc(F)cc1` (stereo unspecified), the melting point stood at 150 °C.

The compound `COC(=O)c1ccc(Cc2cccc3ccc(NC(=O)CC4CCCC4)cc23)c(OC)c1` showed a melting point of 172 to 174 °C.

For `Nc1ncc(-c2ccccc2COC2CCCCC2)s1`, the melting point is 102 °C.

As to `CC(=O)N(c1cc([N+](=O)[O-])c(F)cc1Cl)S(=O)(=O)CCl`, the melting point lay within 183 to 187 °C.

`CC1(C)CCC(C)(C)c2cc(-c3csc(C=CC(=O)O)c3)ccc21`: the melting point was 182 to 185 °C.

With `CCNC(=O)c1ccccc1-c1ccccc1`, the melting point was 77 to 79 °C.

For `CCCCc1ccc(CCc2ccc(-c3ccc(F)cc3F)cc2)cc1`, the melting point amounted to 40 °C.

Compound `COCCOc1ccc(CCC(=O)NS(N)(=O)=O)c(Oc2ncc(C(F)(F)F)cc2Cl)c1` displayed a melting point of 158 to 159 °C.

Take `CC(C(N)=O)c1ccc2c(c1)C(=O)Cc1ccccc1O2` (stereo unspecified): the melting point was in the range of 154 to 155 °C.

In turn, `O=CN1CCN(C[C@H](O)COc2cccc3[nH]ccc23)CC1` returned a melting point of 106 to 107 °C.

In turn, `CC(C)c1csc2[nH]cc(C#N)c(=O)c12` displayed a melting point of 285 °C.

As to `O=C(Cl)N1CCNC1=O`, the melting point is 150 °C.

On to `COCCNC(=O)c1cccc(-c2cccc3cc(Cc4ccc(Cl)s4)sc23)c1`, for which the melting point is 104 to 105 °C.

Consider `CNC(=O)c1cc(Oc2ccc(NC(=O)Nc3ccc(Br)c(C(F)(F)F)c3)cc2)ccn1`, for which the melting point lay within 203 to 205 °C.

`CCNC(=O)[C@H](C)C[C@H](O)[C@H](CC1CCCCC1)NC(=O)[C@H](Cc1cscn1)NC(=O)[C@@H](CC(=O)N(C)Cc1ccccc1)Cc1ccccc1` showed a melting point of 148 to 150 °C.

For the compound `Cc1nnc(-c2ccc3occ(C(=O)N4CCOCC4)c3c2)o1`, the melting point is 168 to 169 °C.

Compound `COCCn1cc(C(=O)NCc2ccc(Cl)cc2)c(=O)c2cc(CCl)sc21` had a melting point of 192 to 193 °C.

On to `CC(=O)OC1COC(NNC(=O)C(F)(F)F)C(OC(C)=O)C1OC(C)=O` (stereo unspecified), for which the melting point was determined as 106 °C.

For `NC(=S)c1ncn2c1[C@@H]1CCN1C(=O)c1ccccc1-2`, the melting point is 227 to 230 °C.

`CC(NC(Nc1cccc(C#N)c1)=C(C#N)S(=O)(=O)c1ccc(Cl)cc1)C(C)(C)C` (stereo unspecified) yielded a melting point of 80 to 82 °C.

`O=C1CC(CP(=O)(c2ccccc2)c2ccccc2)O1` (stereo unspecified) had a melting point of 154 to 155 °C.

Turning to `N#CCc1ccc(CCOc2ccc(CC3SC(=N)NC3=O)cc2)nc1` (stereo unspecified), the melting point was 211 to 212 °C.

As for `OC1(c2ccc(Cl)cc2)CCNC1` (stereo unspecified), the melting point lay in the range of 79 to 80 °C.

The compound `COc1cc(NC(=O)Nc2cnc3c(C)cc(C)cc3c2-c2ccccc2Cl)cc(OC)c1OC` showed a melting point of 204 to 206 °C.
